Reference: PMC9965590, “Development of Computational In Silico Model for Nano Lipid Carrier Formulation of Curcumin” (Molecules, 2023)

Assays:
[1] = In vitro drug release (dialysis bag, phosphate buffer pH 6.8, 37 °C); format: physicochemical
Method: The in vitro drug release research was conducted at 37 °C for 24 h in a phosphate buffer (pH 6.8).
The dialysis bag’s molecular weight threshold of 12–14 KDa was used to determine the in vitro drug release from the formulations [35, 82]. […] Regularly, new dissolution medium samples were taken from the dissolution medium and replaced. A volumetric flask filled with 10 Ml of methanol was treated with 1 mL of the filtrate after it was filtered through Whatman filter paper No. 1. As needed, additional dilutions were made. A spectrophotometric technique was used to analyze the materials. Calculations were made with the Korsmeyer and Peppas model and the PCP Disso Version 2.08 programmed [83, 84, 85, 86, 87, 88] to determine the time needed for 50 and 85% drug release, respectively.

[2] = In vitro gut permeation study; format: in vitro ADME; conditions: after 8 h
Method: The experimental protocol was approved by the Institutional Animal Ethical Committee (IAEC) with approval number CPCSEA/IAEC/JLS/16/9/21/13. Experiments on a fasted Wistar rat’s (weighing 250–300 g) small intestine were conducted in a laboratory setting. An intestinal segment was removed from a dead rat after euthanasia using CO2 inhalation and it was cut into lengths of 6–7 cm. […] In a beaker heated to 37 °C, the sac was submerged in an oxygenated Krebs Ringer solution (20 mL). The sink was maintained by removing and replacing aliquots of 1 mL every 0.5, 1, 1.5, 2, and 8 h with an equivalent volume of warm Krebs Ringer solution heated to 37 °C. Each aliquot’s medication concentration was measured using HPLC (n = 3). The HPLC system is equipped through a Shimadzu LC-10AD VP pump, a C18 Agilent column (Inertsil, 150 mm × 4.66 mm, […]), and a flow rate of 1 mL/min; the mobile phase has been degassed. It is made up of an acetonitrile, water, and methanol (50:10:40) ratio. The detector wavelength was set at 425 nm. The injection volume was 10 µL. The samples were measured after diluting suitably with methanol. Each formulation’s flow and permeability coefficients were calculated.
Papp(cm/sec)=(DQ/dt)(AxCO)

[3] = Actual solubility of curcumin in lipids (laboratory experiment); format: physicochemical
From the text: Table 2 Predicted versus actual results of curcumin solubility in different lipids. | column: Actual Solubility (mg/g)

- time to dissolve 50% of the curcumin [1]: more than 24 h
- Papp at 8 h ([2]; Wistar, rat gut, mucosal to serosal): 4.88 ×10⁻⁶ cm/s
- permeability through the rat gut [2]: 6.83 ± 1.53 mcg/cm^2/h
- permeability and penetration release rate in the intestine and the gut ([2]; as printed in Conclusions): 6.83 ± 1.53 mg/cm^2/h
- Actual Solubility ([3]; in liquid lipid Castor oil): 3.52 ± 0.52 mg/g
- Actual Solubility ([3]; in liquid lipid Corn oil): 1.06 ± 0.15 mg/g
- Actual Solubility ([3]; in liquid lipid Grape seeds oil): 0.59 ± 0.64 mg/g
- Actual Solubility ([3]; in liquid lipid Oleic acid): 4.61 ± 0.13 mg/g
- Actual Solubility ([3]; in liquid lipid Olive oil): 3.48 ± 0.34 mg/g
- Actual Solubility ([3]; in liquid lipid Soybean oil): 1.36 ± 0.26 mg/g
- Actual Solubility ([3]; in solid lipid Cetosteryl): 2.06 ± 0.13 mg/g
- Actual Solubility ([3]; in solid lipid GMS): 3.58 ± 0.03 mg/g
- Actual Solubility ([3]; in solid lipid Palmitic acid): 3.28 ± 0.06 mg/g
- Actual Solubility ([3]; in solid lipid Stearic acid): 2.62 ± 0.12 mg/g
- Actual Solubility ([3]; in solid lipid Tri Palmitin): 3.25 ± 0.30 mg/g
Compound: COc1cc(/C=C/C(=O)CC(=O)/C=C/c2ccc(O)c(OC)c2)ccc1O [curcumin, Curcumin]
